# Patent US20080076147A1, “BIOFILM SAMPLING DEVICE” (BOARD OF TRUSTEES OF SOUTHERN ILLINOIS UNIVERSITY, priority 2006, published 2008)
# Columns and labels:
# Experiment in all cases: Biocide kill of planktonic cells and biofilm on vascular catheter (serum flow model)
# Assay type in all cases: cell-based
# Acinetobacter baumanii = settings: biofilm on vascular catheter, 5 to 60 minutes, FIG. 10B
# Source text: (§1) A system as shown in FIG. 6 was used in this study. Serum and a biocide were placed in sealed bottles as the first fluid source 505 and the second fluid source 509, respectively. The fluid sources were connected to a pump 515 by conventional IV tubing. A second pump 531 was used to deliver the fluid mixture to the vascular catheter 3 positioned in the sampling apparatus 1.
# Initially, only the first fluid source, serum inoculated with Acinetobacter baumanii (10×10^9 CFU/ml), was used to contaminate the catheter with planktonic cells. The inoculated fluid continuously flowed through IV tubing directly through the catheter for […] to form a layer of planktonic cells on the catheter. […] The segments were transferred to test tubes containing one ml saline and the adherent cells were dislodged by sonication in an aquasonic device, vortexed for about one minute, and then counted on Tropic soya Agar. The number of viable cells were determined for each catheter and were compared to the number of viable cells in control samples (i.e., biocide-free serum) to calculate the biocide concentration required to kill 50% of the bacteria in the biofilm at the same time interval. […] In addition to plating cells on agar and counting the number of colonies, the amount of biofilm formed can be determined by a semiquantitive microtiter plate method. […]
# Burkholderia cepacia = settings: 5 to 60 minutes
# Source text: as §1
# (§2) Initially, only the first fluid source, serum inoculated with Acinetobacter baumanii (10×10^9 CFU/ml), was used to contaminate the catheter with planktonic cells. The inoculated fluid continuously flowed through IV tubing directly through the catheter for […] to form a layer of planktonic cells on the catheter. Fluid flow was then stopped and the tubing was then reconfigured as shown in FIG. 6 so that the second fluid source could be introduced. In these test runs, the first fluid source was inoculated with the same concentration of bacteria, and the second fluid source was a biocide (16-16,000 ppm) selected from hydrogen peroxide (H2O2), sodium hypochlorite (SHC), peracetic acid (PAA) and gluteraldehyde (GLT). The fluid mixture continuously flowed through the catheter for 5, 10, 15, 30, 45 or 60 minutes before fluid flow was discontinued to determine bacterial resistance of the planktonic cells on the catheter. In all, six runs were completed for each of four different biocides. After each run, the test catheter was then cut aseptically into 1 cm segments. The segments were transferred to test tubes containing one ml saline and the adherent cells were dislodged by sonication in an aquasonic device, vortexed for about one minute, and then counted on Tropic soya Agar. The number of viable cells were determined for each catheter and were compared to the number of viable cells in control samples (i.e., biocide-free serum) to calculate the biocide concentration required to kill 50% of the bacteria in the biofilm at the same time interval. Instead of saline, other appropriate buffer solutions can be used. In addition to plating cells on agar and counting the number of colonies, the amount of biofilm formed can be determined by a semiquantitive microtiter plate method. For example, adherent cells can be dislodged from test catheters as described above. The aliquots of solutions containing the cells from each catheter piece can then be added separately to wells of a 96-well tissue culture plate and incubated at 37° C. for 24 h. After several (e.g., three) washes with PBS, any remaining biofilm is stained with safranin O dye for 1 min and washed with PBS again. Optical density at 492 nm is determined with a 96-well plate spectrometer reader. For each time point, an aliquot without biocide is a positive control. Percent inhibition of biofilm accumulation can be determined from the formula (A492positive−A492biocide)/(A492positive−A492)×100%, Such plating methods are well known to one skilled in the art and could be modified as desired for analysis of the biofilm.
# (§3) For determination of the bacterial resistance of the biofilm formed on the catheter, the method described above was repeated using the same conditions except that the inoculated fluid continuously flowed through the catheter for two hours before fluid flow was discontinued to form a biofilm on the catheter.
# The experiment was repeated as described above, except that Burkholderia cepacia (1×10^9 CFU/ml) was used to inoculate the serum.
# Escherichia coli = settings: biofilm on vascular catheter, over all time periods (5 to 60 minutes), FIG. 12B
# Enterococcus faecalis = settings: serum, 5 to 60 minutes
# [1] = system: methicillin resistant Staphylococcus aureus (MRSA); settings: biofilm on vascular catheter, 5 to 60 minutes, FIG. 14B
# Staphylococcus epidermis = settings: 5 to 60 minutes
# Source text: as §1, §2, §3
# The experiment was repeated as described above, except that Staphylococcus epidermis (1×10^9 CFU/ml) was used to inoculate the serum.
# Pseudomonas aeruginosa = settings: 5 to 60 minutes
# Source text: as §1, §2, §3
# The experiment was repeated as described above, except that Pseudomonas aeruginosa (1×10^9 CFU/ml) was used to inoculate the serum.
# [2] = system: Stenotrophomonas maltophilia; settings: 5 to 60 minutes
# Source text: as §1, §2, §3
# The experiment was repeated as described above, except that Stenotrophomonas maltophilia (1×10^9 CFU/ml) was used to inoculate the serum.
smiles,measurement,setting,value
"CC(=O)OO [PAA, peracetic acid]",biofilm kill (biocide concentration required to kill 50% of bacteria that grew in the biofilm),Acinetobacter baumanii,most effective
same,biofilm kill (biocide concentration required to kill 50% of bacteria that grew in the biofilm),"Burkholderia cepacia; biofilm on vascular catheter, FIG. 11B",most effective
same,planktonic cell kill (biocide concentration required to kill 100% of bacteria present as planktonic cells),"Burkholderia cepacia; planktonic cells on vascular catheter, FIG. 11A",performed comparably and were more effective than hydrogen peroxide
same,biofilm kill (biocide concentration required to kill 50% of bacteria that grew in the biofilm),Escherichia coli,most effective
same,biofilm kill (biocide concentration required to kill 50% of bacteria that grew in the biofilm),"Enterococcus faecalis; biofilm on vascular catheter, FIG. 13B",most effective
same,planktonic cell kill (biocide concentration required to kill 100% of bacteria present as planktonic cells),"Enterococcus faecalis; planktonic cells on vascular catheter, FIG. 13A",most effective
same,biofilm kill (biocide concentration required to kill 50% of bacteria that grew in the biofilm),[1],most effective
same,biofilm kill (biocide concentration required to kill 50% of bacteria that grew in the biofilm),"Staphylococcus epidermis; biofilm on vascular catheter, FIG. 15B",most effective
same,planktonic cell kill (biocide concentration required to kill 100% of bacteria present as planktonic cells),"Staphylococcus epidermis; planktonic cells on vascular catheter, FIG. 15A",performed similarly in planktonic cell kill and outperformed hydrogen peroxide
same,biofilm kill (biocide concentration required to kill 50% of bacteria that grew in the biofilm),"Pseudomonas aeruginosa; biofilm on vascular catheter, FIG. 16B",most effective
same,planktonic cell kill (biocide concentration required to kill 100% of bacteria present as planktonic cells),"Pseudomonas aeruginosa; planktonic cells on vascular catheter, FIG. 16A",performed comparably and were more effective than hydrogen peroxide and SHC
same,biofilm kill (biocide concentration required to kill 50% of bacteria that grew in the biofilm),"[2]; biofilm on vascular catheter, FIG. 17B",most effective
same,planktonic cell kill (biocide concentration required to kill 100% of bacteria present as planktonic cells),"[2]; planktonic cells on vascular catheter, FIG. 17A",GLT was somewhat more effective in killing planktonic cells as compared to SHC or PAA
